Data taken from publication PMC7611167 (Journal of medicinal chemistry, 2019).

Columns and labels:
[1] = tested on: A/Puerto Rico/8/34 (H1N1); assay type: cell-based, influenza A virus
[2] = molecular target: T1, aldehyde oxidase (AO) (Homo sapiens, UniProt Q06278); assay: Aldehyde oxidase metabolism in human liver cytosol; assay type: in vitro ADME; conditions: 1 μM, 1 mg/mL protein, 37°C, up to 60 minutes, with or without Raloxifene
T1 sequence (Q06278 1-1338): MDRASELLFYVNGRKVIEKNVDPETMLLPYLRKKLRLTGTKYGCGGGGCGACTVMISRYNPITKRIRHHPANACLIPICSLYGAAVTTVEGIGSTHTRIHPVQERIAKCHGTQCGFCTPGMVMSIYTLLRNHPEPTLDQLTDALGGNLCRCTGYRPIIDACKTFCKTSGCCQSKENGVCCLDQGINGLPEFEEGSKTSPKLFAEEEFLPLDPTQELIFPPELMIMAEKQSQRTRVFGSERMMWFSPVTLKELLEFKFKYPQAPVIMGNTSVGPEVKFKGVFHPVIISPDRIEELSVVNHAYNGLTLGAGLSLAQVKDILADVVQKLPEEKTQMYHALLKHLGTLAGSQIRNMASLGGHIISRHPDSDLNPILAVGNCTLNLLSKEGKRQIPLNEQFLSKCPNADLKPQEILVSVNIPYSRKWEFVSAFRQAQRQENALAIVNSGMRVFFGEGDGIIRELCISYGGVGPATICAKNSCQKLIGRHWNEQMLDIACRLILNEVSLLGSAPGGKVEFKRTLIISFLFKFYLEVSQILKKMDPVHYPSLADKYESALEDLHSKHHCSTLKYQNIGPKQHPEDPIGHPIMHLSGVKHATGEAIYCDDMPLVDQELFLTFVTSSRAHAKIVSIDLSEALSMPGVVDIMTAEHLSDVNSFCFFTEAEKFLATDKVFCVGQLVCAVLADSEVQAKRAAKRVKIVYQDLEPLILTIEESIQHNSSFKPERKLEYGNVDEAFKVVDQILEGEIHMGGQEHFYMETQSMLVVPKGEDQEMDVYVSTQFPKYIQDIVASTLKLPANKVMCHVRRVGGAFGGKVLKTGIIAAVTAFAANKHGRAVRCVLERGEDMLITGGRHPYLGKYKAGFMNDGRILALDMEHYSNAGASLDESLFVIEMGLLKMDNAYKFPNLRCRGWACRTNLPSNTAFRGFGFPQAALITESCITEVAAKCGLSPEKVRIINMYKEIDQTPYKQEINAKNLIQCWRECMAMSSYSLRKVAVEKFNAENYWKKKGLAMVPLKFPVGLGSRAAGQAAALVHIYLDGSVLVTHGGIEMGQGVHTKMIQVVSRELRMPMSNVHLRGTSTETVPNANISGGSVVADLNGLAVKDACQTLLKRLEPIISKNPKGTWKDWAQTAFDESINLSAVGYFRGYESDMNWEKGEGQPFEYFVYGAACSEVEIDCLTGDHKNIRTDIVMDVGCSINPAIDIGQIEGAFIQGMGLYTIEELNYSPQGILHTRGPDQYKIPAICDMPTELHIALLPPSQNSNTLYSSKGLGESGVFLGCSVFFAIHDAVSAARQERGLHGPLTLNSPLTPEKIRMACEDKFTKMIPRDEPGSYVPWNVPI

[3] = tested on: panel of 59 kinases; assay: Kinase panel; assay type: biochemical
[4] = molecular target: GSK3β (Homo sapiens, UniProt P49841); assay: Kinase panel, GSK3β; assay type: biochemical; conditions: at 1μM
[5] = tested on: influenza A/Puerto Rico/8/34 (H1N1); conditions: mouse, in vivo, po, 30 mg/kg

Sequence of GSK3β (P49841 whole entry, species assumed): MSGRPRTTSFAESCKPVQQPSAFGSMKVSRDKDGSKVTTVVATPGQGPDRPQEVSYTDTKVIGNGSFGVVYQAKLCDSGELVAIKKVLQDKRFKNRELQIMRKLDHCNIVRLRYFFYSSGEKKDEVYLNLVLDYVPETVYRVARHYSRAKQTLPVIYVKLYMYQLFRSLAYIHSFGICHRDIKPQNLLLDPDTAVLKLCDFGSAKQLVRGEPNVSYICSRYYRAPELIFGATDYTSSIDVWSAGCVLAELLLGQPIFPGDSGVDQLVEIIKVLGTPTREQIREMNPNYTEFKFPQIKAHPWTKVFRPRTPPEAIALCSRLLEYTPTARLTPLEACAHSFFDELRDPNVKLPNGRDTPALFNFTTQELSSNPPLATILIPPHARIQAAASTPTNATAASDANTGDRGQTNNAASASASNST

## N#Cc1cc(F)c2[nH]cc(-c3ncc(F)c(N[C@H]4C5CCC(CC5)[C@@H]4C(=O)O)n3)c2c1 [Compound 11d, (2S,3S)-3-((2-(5-cyano-7-fluoro-1H-indol-3-yl)-5-fluoropyrimidin-4-yl)amino) bicyclo[2.2.2]octane-2-carboxylic acid]
[1]
  A/Puerto Rico/8/34 SI (selectivity index, CC50/IC50): >612

## O=C(O)[C@H]1C2CCC(CC2)[C@@H]1Nc1nc(-c2c[nH]c3c(F)cc(Cl)cc23)ncc1F [Compound 11b, (2S,3S)-3-((2-(5-chloro-7-fluoro-1H-indol-3-yl)-5-fluoropyrimidin-4-yl)amino)bicyclo-[2.2.2]octane-2-carboxylic acid]
[1]
  A/Puerto Rico/8/34 SI (selectivity index, CC50/IC50): >485

## c1ccc2cnncc2c1 [phthalazine]
[2]
  Aldehyde oxidase (AO) metabolism in human liver cytosol: AO metabolism in the normal range

## O=C(O)[C@H]1C2CCC(CC2)[C@@H]1Nc1nc(-c2c[nH]c3c(F)cc(F)cc23)ncc1F [Compound 11a, (2S,3S)-3-((2-(5,7-difluoro-1H-indol-3-yl)-5-fluoropyrimidin-4-yl)amino)bicyclo [2.2.2]octane-2-carboxylic acid]
[3]
  Activity across a panel of 59 kinases: inactive
[4]
  GSK3β inhibition: no inhibition
[5]
  Body weight course: regained weight from day 11

## CCOC(=O)C1=C[C@@H](OC(CC)CC)[C@H](NC(C)=O)[C@@H](N)C1 [Oseltamivir, reference compound]
[1]
  A/Puerto Rico/8/34 SI (selectivity index, CC50/IC50): >4132
